Columns and labels:
[1] = system: NK92 cells; experiment: NK92 cell activation: CD107a up-regulation on incubation with Raji cells with or without rituximab, flow cytometry; format: cell-based, human
Procedure: (§1) FIG. 5. Effects of the engineered S197P mutation on CD16a function. (A) NK92 cells expressing CD16a or CD16a/S197P at equivalent levels (left panel) were treated with monomeric human IgG (0-20 μg/ml). As controls, cells were also treated with monomeric human IgA (20 μg/ml), and NK92 parent cells were treated with IgG (20 μg/ml) (bar). Antibody binding was determined by flow cytometry, as described in Materials and Methods. […] Statistical significance is indicated as *P<0.05 versus IgG (0 μg/ml), IgA, or NK92 parent cells+IgG. (B) Mock transduced NK92 cells or NK92 cells expressing CD16a or CD16a/S197P were incubated in the absence (Unstim.) or presence of Raji cells treated with or without anti-CD20 rituximab for the indicated time points at 37° C. NK92 cell activation was assessed by the up-regulation in CD107a staining by flow cytometry. For the histogram plots, the x-axis=Log 10 fluorescence and the y-axis=cell number. Data are representative of at least 3 independent experiments.
HEK293 and NK92 cells in RPMI 1640 media (Mediatech, Inc., Manassas, Va.) were activated with 15 ng/ml and 100 ng/ml, respectively, PMA for 30 minutes at 37° C. NK92 cells were activated with IL-12 (PeproTech Inc, Rocky Hill, N.J.) and IL-18 (R&D Systems, Inc., Minneapolis, Minn.) at 100 ng/ml and 400 ng/ml, respectively, for the indicated time points. NK92 cell activation through CD16a was mediated by their incubation with the CD20-positive Burkitt's lymphoma cell line Raji (ATCC, grown according to the depository's instructions) (1:1 ratio) treated with the anti-CD20 mAb rituximab (1 μg/ml) (Genentech, Inc., South San Francisco, Calif.), as described previously (Romee et al., 2013, Blood 121:3599-3608). Excess rituximab was removed by washing the Raji cells. In some experiments, NK92 cells were pre-incubated for 30 minutes with the selective ADAM17 inhibitor BMS566394 (5 μM) (Bristol-Myers Squibb Company, Princeton, N.J.). […]
(§2) For cell staining, nonspecific antibody binding sites were blocked and cells were stained with the indicated antibodies and examined by flow cytometry, as previously described (Wang et al., 2013, Biochim Biophys Acta. 1833:680-685; Romee et al., 2013, Blood 121:3599-3608). […] Human CD16 was detected by the mAbs 3G8 (BioLegend, Inc., San Diego, Calif.) and DJ130c (Santa Cruz Biotech, Santa Cruz, Calif.). CD107a was detected by the mAb H4A3 (Biolegend, Inc., San Diego, Calif.). ADAM17 was detected by the mAbs M220 (Doedens et al., 2000, J Biol Chem. 275:14598-14607), 111633, and 111623 (R&D Systems, Inc., Minneapolis, Minn.). Human L-selectin was detected by the mAb LAM1-116 (Ancell Corp., Stillwater, Minn.). […]

[2] = system: iPSC-derived NK cells; experiment: Cell surface CD16a on iPSC-derived NK cells stimulated with K562 cells, flow cytometry; format: cell-based, human; conditions: iPSC-derived NK cells with K562 target cells (2:1 ratio), four hours at 37° C.
[3] = system: monomeric human IgG; experiment: Antibody binding assay: monomeric human IgG and IgA binding to NK92 cells expressing CD16a or CD16a/S197P; conditions: NK92 cells expressing the receptor; IgA 20 μg/ml
Procedure: as §1
Cell binding to monomeric human IgG and IgA (Sigma-Aldrich, St. Louis, Mo.) was performed as previously described with some modifications (Dong et al., 2014, Arthritis Rheumatol. 66:1291-1299). […] The cells were washed and then immediately analyzed by flow cytometry.

[4] = system: ADAM17; experiment: Anti-ADAM17 mAb staining of NK92 cells expressing CD16a or CD16a/S197P, flow cytometry; format: cell-based, human; conditions: NK92 cells expressing CD16a compared with CD16a/S197P; multiple anti-ADAM17 mAbs
Procedure: FIG. 4. Effects of the engineered S197P mutation on CD16a shedding in NK cells. NK92 cells transduced with empty vector (vector only), CD16a, or CD16a/S197P were treated without (Unstim.) or with PMA (100 ng/ml) for 30 minutes at 37° C. (A), with IL-12 and IL-18 (100 ng/ml and 400 ng/ml, respectively) for 24 hours at 37° C. (B), or with Raji cells and rituximab for 60 minutes at 37° C. (C). Cell surface levels of CD16a were determined by flow cytometry. Isotype-matched negative control antibody staining is indicated by a dotted line. […] Soluble CD16a levels were determined by ELISA. […] For all histogram plots, the x-axis=Log 10 fluorescence, the y-axis=cell number, and the data are representative of at least 3 independent experiments.
as §2, with “Minn.).” for “Minn.). Human L-selectin was detected by the mAb LAM1-116 (Ancell Corp., Stillwater, Minn.).”

[5] = NK92 cells incubated with Raji cells alone
[6] = NK92 cells incubated with Raji cells treated with rituximab

CD16a: Wild-type human IgG Fc receptor CD16a (FcγRIIIa), valine allelic variant, recombinant comparator [reference compound]
up-regulation of CD107a [1, 5]: marginally up-regulated | up-regulation of CD107a [1, 6]: considerable up-regulation | cell surface expression of CD16a after stimulation [2]: marked down-regulation | monomeric IgA binding (control) [3]: essentially background levels | ADAM17 cell surface levels [4]: identical cell surface levels

CD16a/S197P: Human CD16a (FcγRIIIa, SEQ ID NO:1) with serine-197 substituted by proline in the membrane proximal cleavage region; expressed recombinantly in cells
up-regulation of CD107a [1, 5]: marginally up-regulated | up-regulation of CD107a [1, 6]: considerable up-regulation | cell surface expression of CD16a after stimulation [2]: remained stable | monomeric IgA binding (control) [3]: essentially background levels | ADAM17 cell surface levels [4]: identical cell surface levels
